Read-outs that look alike come from different tables or passages of the source.
Assays:
[1] = biological target: vanilloid VRI receptors (Homo sapiens, UniProt Q8NER1); conditions: cited from earlier work
[2] = system: mesenteric vascular tone; assay: Drug effects on mesenteric vascular tone in perfused mouse mesenteric area (phenylephrine-established tone); parameters: species or system mice; conditions: for mesenteric vasodilation: injected intraarterially as a 1 mg bolus; for vasodilation (agonist effect): intra arterial bolus, dose-response, FIG. 1; for dose lower than the dose of Abn-cbd required to produce similar vasodilation: relative to Abn-cbd; for inhibition of 0-1848-induced vasodilation: FIG. 2(B), 2(C)
Method: For measuring drug effects on mesenteric vascular tone in mice, sodium pentobarbital-anesthetized mice were laparotornized and a PE50 cannula was inserted distally into the abdominal aorta. Both renal and both femoral arteries were ligated, the heart removed, and the mesenteric area including the liver was perfused with oxygenated Krebs buffer at 36° C., using a peristaltic pump and a constant flow rate of 0.7 ml/min. Perfusion pressure monitored close to the inflow cannula was 25-30 mmHg, and was increased to 60-70 mmHg by the inclusion of 15 μM phenylephrine in the medium. Vasodilator effects were expressed as % relaxation of established tone, 100% being equal to the difference in perfusion pressure in the absence and presence of phenylephrine.
Perfusion pressure monitored near the inflow cannula should be 25-30 mmHg (1 mmHg[…]133 Pa) and is increased to 60-70 mmHg by the inclusion of […] phenylephrine in the medium. Vasodilation is expressed as percent relaxation of established tone, 100% being equal to the difference in perfusion pressure in the absence and presence of phenylephrine.
Evaluation of vasodilator response was performed as in Example 1 except that after addition of either the agonists 0-1602 (FIG. 2A) or 0-1848 (FIG. 2B-2C) as intra arterial bolus injections, the mesenteric preparation was perfused with either drug free buffer (solid circles) or buffer containing […].

[3] = system: mesenteric vascular tone; assay: as above; parameters: species or system mice; conditions: antagonist at 10 μM in perfusion buffer, FIG. 2(A)
[4] = biological target: T1, CB1 receptors (Rattus norvegicus, UniProt P20272); assay: 3H-CP-55,940 radioligand binding to P2 membranes from rat brain; conditions: concentration of 10 μM
T1 construct: from tissue; host or cells: rat brain P2 membranes

[5] = Neurobehavioral tetrad (tail flick, locomotor activity, ring immobility, core body temperature); type: in vivo, mice
Source text: The protocol of the tail-flick test was as follows. The apparatus that was used for the tail-flick test contained a light source placed directly above a photocell connected to a timer. The mouse was held under a cloth by the technician conducting the experiment. The tail of the test animal was placed over the photocell and the light was turned on. When the test animal felt the discomfort of the heat from the light, it was freely able to remove its tail from the lamp. The photocell than sensed that the tail had moved and the timer was stopped. The typical nontreatment reaction time for an animal subjected to this test was about 2-4 seconds. This test involved a spinal reflex action similar to the removal of a finger from a hot stove. In treated animals, the latency to remove the tail lengthens in proportion to the analgesic potency of the drug. No animal was allowed to remain under the lamp for greater than 10 seconds to prevent any burns to the tail. No animal was subjected twice to this test.
Locomotor activity, ring immobility, and core body temperature parameters were measured as described in detail by Smith et al. (J. Pharmacol. Exp.Ther. (1994) 270; 219-227). Briefly, spontaneous locomotor activity is expressed as % inhibition vs. control. Mice were placed in individual activity cages 5 minutes post treatment, and interruption of the photocell beams (16 beams/chamber) were recorded for a 10 minute period using a Digiscan Animal Activity Monitor (Omnitech). Core temperature was measured by a rectal thermistor inserted to 25 mm, before and 30 minutes after administration of Abn-cbd. Catalepsy (ring immobility procedure) was expressed as % of total time spent motionless. Test compound can be injected into a tail vain i.v., and measurements are performed at 5 min (spontaneous motility), min (tail flick latency), 60 min (Core temperature) or 90 min (ring immobility) after drug injection.
Adult ICR mice (25-30 g) were from Harlan (Indianapolis, Ind.). Both male and female animals were used for these studies. Animals were housed four at a cage with standard mouse chow and water ad libitum, and were maintained at […] under a 12:12 light:dark cycle.

[6] = system: mesenteric arterial bed; conditions: cited from earlier work; for vasodilation: rat isolated / perfused mesenteric arterial bed
[7] = biological target: T1, CB1 receptors; conditions: cited from earlier work; for binding to CB1 receptors: summary statement, no concentration
[8] = cited from earlier work; for neurobehavioral effects: summary statement, no dose
[9] = 10 mg/kg i.v., anesthetized mice; prevented by 3 mg/kg SR141716A; cited from earlier work
[10] = 10 mg/kg i.v., anesthetized rats; prevented by 3 mg/kg SR141716A; cited from earlier work
[11] = system: mesenteric arterial bed; assay: Vascular tone in isolated mesenteric arterial bed, with or without antagonist or endothelial denudation; parameters: species or system rat; conditions: 100 μg, species not given
Method: The methods used to analyze drug effects on vascular tone in the rat isolated mesenteric arterial bed and to achieve endothelial denudation by brief perfusion with distilled water have been described in detail elsewhere (Wagner et al.(1999), Hypertension 33 (Part II), 429-434). Because of the long lasting vasodilator effect of anandamide, R-methanandamide and abnormal cannabidiol, each preparation was tested with a single dose of the agonist, either in the absence or the presence of an antagonist.

[12] = Blood pressure in urethane-anaesthetized spontaneous hypertensive (SHR) rats; type: in vivo; conditions: 5 animals

T1 sequence (P20272 whole entry): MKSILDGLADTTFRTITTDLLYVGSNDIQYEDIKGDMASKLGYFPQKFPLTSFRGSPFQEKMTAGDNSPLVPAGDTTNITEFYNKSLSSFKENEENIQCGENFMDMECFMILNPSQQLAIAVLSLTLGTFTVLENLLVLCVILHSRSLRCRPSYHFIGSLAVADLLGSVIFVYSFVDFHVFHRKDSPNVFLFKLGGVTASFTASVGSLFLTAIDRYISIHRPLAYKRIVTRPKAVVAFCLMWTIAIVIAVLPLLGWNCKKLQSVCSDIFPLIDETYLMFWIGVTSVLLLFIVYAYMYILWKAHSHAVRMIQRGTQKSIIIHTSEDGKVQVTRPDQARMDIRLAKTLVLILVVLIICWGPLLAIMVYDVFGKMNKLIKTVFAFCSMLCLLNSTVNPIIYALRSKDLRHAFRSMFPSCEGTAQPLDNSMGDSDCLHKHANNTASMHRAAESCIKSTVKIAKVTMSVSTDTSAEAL
Chain of vanilloid VRI receptors (Q8NER1 whole entry, the tested form may be a part): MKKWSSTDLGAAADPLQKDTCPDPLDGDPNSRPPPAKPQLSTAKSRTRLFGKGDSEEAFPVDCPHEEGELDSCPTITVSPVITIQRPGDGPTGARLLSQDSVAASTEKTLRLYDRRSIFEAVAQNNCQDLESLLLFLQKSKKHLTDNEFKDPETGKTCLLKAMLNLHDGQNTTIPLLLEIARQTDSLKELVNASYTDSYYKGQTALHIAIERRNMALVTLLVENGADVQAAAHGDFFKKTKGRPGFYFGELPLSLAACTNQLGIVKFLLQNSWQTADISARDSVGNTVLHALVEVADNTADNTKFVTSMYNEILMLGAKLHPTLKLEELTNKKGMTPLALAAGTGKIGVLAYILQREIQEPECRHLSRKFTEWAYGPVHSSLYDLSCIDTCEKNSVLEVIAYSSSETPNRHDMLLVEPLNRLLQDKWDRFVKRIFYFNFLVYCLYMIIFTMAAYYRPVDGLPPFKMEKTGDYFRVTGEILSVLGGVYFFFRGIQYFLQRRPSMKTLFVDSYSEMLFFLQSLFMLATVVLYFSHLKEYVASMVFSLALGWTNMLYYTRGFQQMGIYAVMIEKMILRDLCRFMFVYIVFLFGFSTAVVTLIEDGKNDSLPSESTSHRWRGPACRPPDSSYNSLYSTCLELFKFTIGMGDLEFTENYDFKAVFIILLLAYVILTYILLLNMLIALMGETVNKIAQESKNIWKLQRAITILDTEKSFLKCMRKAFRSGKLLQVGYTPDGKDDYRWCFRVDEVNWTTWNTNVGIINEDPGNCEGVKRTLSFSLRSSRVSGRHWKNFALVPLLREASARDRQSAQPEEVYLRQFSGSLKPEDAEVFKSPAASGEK

## Oc1cc2c(cc1O)CN(C(=S)NCCc1ccc(Cl)cc1)CCC2 [capsazepine]
[1]
  Kd: 285 nM

## C=C(C)[C@@H]1CCC(C)=CC1c1c(O)cc(C)cc1O (single isomer, unassigned; (-)) [0-1821, (−)-2-(3-3,4-trans-p-menthadien-(1,8)-orcinol]
[2]; FIG. 2(A), antagonist in perfusion buffer
  inhibition of 0-1602-induced vasodilation: dose-dependent pronounced inhibition
[2]
  mesenteric vasodilation: did not elicit vasodilation
[3]
  inhibition of the vasodilatory effect of compound 0-1602: almost complete inhibition
[4]
  binding to CB1 receptors: no significant binding
[5]; 30 μg/kg
  response in the tetrad of standard neurobehavioral effects: does not elicit a response

## CCCCCc1cc(O)c2c(c1)OC(C)(C)[C@@H]1CCC(C)=C[C@@H]21 [THC, Δ9-trahydrocannabinol]
[6]
  vasodilation: do not have a vasodilator effect

## C=C(C)[C@@H]1CCC(C)=C[C@H]1c1c(O)cc(CCCCC)cc1O [cannabidiol]
[7]
  binding to CB1 receptors: does not bind
[8]
  neurobehavioral effects: devoid of neurobehavioral effects
[6]; species not stated
  antagonism of the vasodilator effect of Abn-cbd: able to antagonize
  mesenteric vasodilation: does not elicit mesenteric vasodilation

## CCCCC/C=C\C/C=C\C/C=C\C/C=C\CCCC(=O)NCCO [anandamide, arachidonyl ethanolamide]
[6]
  vasodilation: elicits prolonged vasodilation

## CCCCCCC(C)(C)c1cc(O)c2c(c1)OC(C)(C)[C@@H]1CC=C(CO)C[C@@H]21 [HU-210]
[6]
  vasodilation: do not have a vasodilator effect

## C=C(C)[C@@H]1CCC(C)=CC1c1c(O)cc(O)cc1CCCCC (single isomer, unassigned; (-)) [Abn-cbd, (−)-4-(3-3,4-trans-p-menthadien-1,8)-yl-olivetol]
[9]
  hypotension: cause hypotension
[10]
  hypotension: cause hypotension
[7]; concentrations up to 100 uM, rat brain plasma membrane preparation
  displacement of a potent known ligand from CB1 cannabinoid receptors: failed to displace
[7]
  binding to CB1 receptors: does not bind
[8]; doses up to 60 mg/kg, mice
  marijuana-like neurobehavioral effects: does not cause marijuana-like neurobehavioral effects
[8]
  neurobehavioral effects: does not elicit cannabinoid-like neurobehavioral effects
[6]; 100 μM L-NAME and 10 μM indomethacin in the perfusion buffer
  vasodilator response in the presence of L-NAME and indomethacin: remains unchanged
[6]; bolus injection of 4 mg, 5 μM capsazepine
  vasodilation in the presence of capsazepine: same long lasting vasodilation
[6]
  vasodilation: caused vasodilation

## C=C(C)[C@@H]1CCC(C)=CC1c1c(C)cc(O)cc1O (some centres unmarked) [0-1602]
[11]; n=3, P<0.005
  vasodilation after endothelial denudation: 18%±2
  vasodilation in the presence of SR141716A: 15%±3
[11]; n=4
  vasodilation: 54%±2
[2]
  vasodilation (agonist effect): dose-dependent pronounced vasodilation
  dose lower than the dose of Abn-cbd required to produce similar vasodilation: 80 ×
[5]; dose not given
  response in the tetrad of standard neurobehavioral effects: does not elicit a response

## Cc1c(C(=O)c2cccc3ccccc23)c2cccc3c2n1[C@H](CN1CCOCC1)CO3 [WIN 55212-2]
[6]
  vasodilation: do not have a vasodilator effect

## C=C(C)[C@@H]1CCC(C)=CC1c1c(O)c(I)c(C)c(I)c1O (single isomer, unassigned; (-)) [0-1868, (−)-2-(3-3,4-trans-p-menthadien-(1,8)-4,6-diiodoorcinol]
[2]; antagonist in perfusion buffer
  inhibition of 0-1848-induced vasodilation: dose-dependent pronounced inhibition
[2]
  mesenteric vasodilation: did not elicit mesenteric vasodilation
[4]
  binding to CB1 receptors: no significant binding
[5]; 30 μg/kg
  response in the tetrad of standard neurobehavioral effects: does not elicit a response

## C=C(C)[C@@H]1CCC(C)=CC1c1c(O)cccc1O (some centres unmarked) [0-1847]
[2]; antagonist in perfusion buffer
  inhibition of 0-1848-induced vasodilation: dose-dependent pronounced inhibition
[2]
  mesenteric vasodilation: did not elicit mesenteric vasodilation
[4]
  binding to CB1 receptors: no significant binding
[5]; 30 μg/kg
  response in the tetrad of standard neurobehavioral effects: does not elicit a response

## C=C(C)[C@@H]1CCC(C)=CC1c1ccc(O)cc1O (some centres unmarked) [0-1848]
[2]
  vasodilation (agonist effect): dose-dependent pronounced vasodilation
  dose lower than the dose of Abn-cbd required to produce similar vasodilation: 80 ×
[5]; dose not given
  response in the tetrad of standard neurobehavioral effects: does not elicit a response
[12]
  hypotensive effect (reduction in mean blood pressure): elicits a hypotensive effect

From US6563009B1, “Vasodilator cannabinoid analogs” (priority 1999, dated 2003)
